Results reported in patent US8618289B2 (Ambit Biosciences Corporation, priority 2008, dated 2013).
pEC50, pIC50, pKd: −log10 of the molar value. Where a name gives a salt, the structure may show the parent alone. Read-outs that look alike come from different tables or passages of the source.

What was measured:
[1] = system: MEK1 phosphorylation in the A375 human melanoma cell line; test: cells; settings: A-375, read-out: pMEK IC50
[2] = system: A375 cells; test: cells; settings: Homo sapiens, A-375, read-out: A375 Viability EC50
[3] = target: T1, RAF kinases (Homo sapiens, UniProt P15056, V600E); settings: read-out: BRAF V600E Kd; BRAF V600E
[4] = target: T2, RAF kinases (Homo sapiens, UniProt P04049); settings: read-out: RAF1 Kd; RAF1
[5] = target: RAF kinases (Homo sapiens, UniProt P15056); settings: read-out: BRAF WT Kd; BRAF WT
[6] = target: T1, RAF kinases; test: biochemical
[7] = target: T2, RAF kinases; test: biochemical

T1 sequence (P15056 whole entry V600E): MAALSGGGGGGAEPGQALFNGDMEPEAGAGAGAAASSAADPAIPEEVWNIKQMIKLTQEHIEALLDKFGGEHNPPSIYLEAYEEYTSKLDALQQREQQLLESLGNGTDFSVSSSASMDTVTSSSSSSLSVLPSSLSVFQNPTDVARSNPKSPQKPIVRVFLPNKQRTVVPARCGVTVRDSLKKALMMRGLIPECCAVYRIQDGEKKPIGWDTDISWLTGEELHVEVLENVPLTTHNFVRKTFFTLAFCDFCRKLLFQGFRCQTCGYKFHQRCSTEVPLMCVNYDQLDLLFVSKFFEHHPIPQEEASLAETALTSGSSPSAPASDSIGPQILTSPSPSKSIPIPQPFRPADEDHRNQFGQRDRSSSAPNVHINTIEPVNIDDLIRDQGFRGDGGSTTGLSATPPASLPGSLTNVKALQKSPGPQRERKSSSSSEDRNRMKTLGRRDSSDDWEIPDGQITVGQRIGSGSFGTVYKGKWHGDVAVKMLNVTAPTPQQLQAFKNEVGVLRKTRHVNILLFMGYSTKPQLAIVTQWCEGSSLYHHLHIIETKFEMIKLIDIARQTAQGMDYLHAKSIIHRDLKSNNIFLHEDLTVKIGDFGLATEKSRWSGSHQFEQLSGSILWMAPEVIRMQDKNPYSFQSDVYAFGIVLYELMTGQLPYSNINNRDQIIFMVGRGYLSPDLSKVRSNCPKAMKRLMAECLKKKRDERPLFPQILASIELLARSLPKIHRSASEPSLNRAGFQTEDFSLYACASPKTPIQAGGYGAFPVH
T2 sequence (P04049 whole entry): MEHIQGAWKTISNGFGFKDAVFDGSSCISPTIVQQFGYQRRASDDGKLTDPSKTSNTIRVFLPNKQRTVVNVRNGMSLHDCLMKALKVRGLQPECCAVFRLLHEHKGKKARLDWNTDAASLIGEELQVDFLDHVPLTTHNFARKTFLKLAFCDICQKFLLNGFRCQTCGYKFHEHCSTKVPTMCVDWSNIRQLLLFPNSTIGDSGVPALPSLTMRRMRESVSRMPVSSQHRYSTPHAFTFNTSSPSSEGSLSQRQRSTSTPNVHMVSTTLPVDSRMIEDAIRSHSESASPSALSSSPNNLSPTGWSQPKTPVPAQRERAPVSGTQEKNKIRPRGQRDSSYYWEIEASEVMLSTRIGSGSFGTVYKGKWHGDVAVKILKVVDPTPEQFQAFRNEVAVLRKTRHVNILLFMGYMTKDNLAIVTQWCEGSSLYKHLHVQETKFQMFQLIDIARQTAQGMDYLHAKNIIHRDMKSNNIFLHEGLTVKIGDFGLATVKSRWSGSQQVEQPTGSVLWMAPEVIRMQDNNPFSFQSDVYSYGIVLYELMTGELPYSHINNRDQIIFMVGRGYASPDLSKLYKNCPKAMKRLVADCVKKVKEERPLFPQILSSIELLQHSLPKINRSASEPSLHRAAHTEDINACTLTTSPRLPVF
Sequence of RAF kinases (Homo sapiens, UniProt P15056) (P15056 whole entry): as the sequence (P15056 whole entry V600E) above, with E600V counted along it

Compound: COc1cc2ncnc(Oc3cccc(NC(=O)Nc4cc(C(C)(C)C)on4)c3C)c2cc1OC [Ex290, 1-(5-tert-butylisoxazol-3-yl)-3-(3-(6,7-dimethoxyquinazolin-4-yloxy)-2-methylphenyl)urea]
- pIC50 [1]: > 6.60
- pEC50 [2]: 6.30 to 6.60
- pKd [3]: > 6.60
- pKd [4]: > 6.60
- pKd [5]: > 6.60

Compound: COc1cc2ncnc(Oc3cc(NC(=O)Nc4cc(C(C)(C)F)no4)ccc3F)c2cc1OC [Ex293, 1-(3-(6,7-dimethoxyquinazolin-4-yloxy)-4-fluorophenyl)-3-(3-(2-fluoropropan-2-yl)isoxazol-5-yl)urea]
- pIC50 [1]: > 6.60
- pEC50 [2]: 6.30 to 6.60
- pKd [3]: > 6.60
- pKd [4]: > 6.60
- pKd [5]: > 6.60

Compound: COCCOc1cc2ncnc(Oc3cccc(NC(=O)Nc4cc(C(C)C)on4)c3)c2cc1OC [Ex 206, 1-(5-isopropylisoxazol-3-yl)-3-(3-(6-methoxy-7-(2-methoxyethoxy)quinazolin-4-yloxy)phenyl)urea]
- pIC50 [1]: 6.00 to 6.30
- pEC50 [2]: < 6.00
- pKd [3]: > 6.60
- pKd [4]: > 6.60
- pKd [5]: > 6.60

Compound: COCCOc1cc2ncnc(Oc3cccc(NC(=O)Nc4cc(C(F)(F)F)n(C)n4)c3)c2cc1OC [Ex 208, 1-{3-[6-methoxy-7-(2-methoxyethoxy)quinazolin-4-yloxy]phenyl}-3-[1-methyl-5-(trifluoromethyl)-1H-pyrazol-3-yl]urea]
- pIC50 [1]: < 6.00
- pEC50 [2]: < 6.00
- pKd [3]: > 6.60
- pKd [4]: > 6.60
- pKd [5]: > 6.60

Compound: COCCOc1cc2ncnc(Oc3cccc(NC(=O)Nc4cc(C5CC5)no4)c3)c2cc1OC [Ex 214, 1-(3-cyclopropylisoxazol-5-yl)-3-(3-(6-methoxy-7-(2-methoxyethoxy)quinazolin-4-yloxy)phenyl)urea]
- pIC50 [1]: < 6.00
- pEC50 [2]: < 6.00
- pKd [3]: > 6.60
- pKd [4]: > 6.60
- pKd [5]: > 6.60

Compound: COCCOc1cc2ncnc(Oc3cccc(NC(=O)Nc4cc(C5CCCC5)on4)c3)c2cc1OC [Ex 219, 1-(5-cyclopentylisoxazol-3-yl)-3-(3-(6-methoxy-7-(2-methoxyethoxy)quinazolin-4-yloxy)phenyl)urea]
- pIC50 [1]: > 6.60
- pEC50 [2]: 6.30 to 6.60
- pKd [3]: > 6.60
- pKd [4]: > 6.60
- pKd [5]: > 6.60

Compound: COCCOc1cc2ncnc(Oc3cccc(NC(=O)Nc4cc(C(F)(F)F)nn4C)c3)c2cc1OC [Ex 220, 1-{3-[6-methoxy-7-(2-methoxyethoxy)quinazolin-4-yloxy]phenyl}-3-[1-methyl-3-(trifluoromethyl)-1H-pyrazol-5-yl]urea]
- pIC50 [1]: 6.00 to 6.30
- pEC50 [2]: < 6.00
- pKd [3]: > 6.60
- pKd [4]: > 6.60
- pKd [5]: > 6.60

Compound: COCCOc1cc2ncnc(Oc3cccc(NC(=O)Nc4ccc(C(F)(F)F)c(OC)c4)c3)c2cc1OC [Ex 223, 1-(3-methoxy-4-(trifluoromethyl)phenyl)-3-(3-(6-methoxy-7-(2-methoxyethoxy)quinazolin-4-yloxy)phenyl)urea]
- pKd [6]: 6.30 to 6.60
- pKd [7]: 6.00 to 6.30
- pIC50 [1]: < 6.00
- pEC50 [2]: < 6.00
- pKd [5]: < 6.00

Compound: CCOC(=O)Cn1nc(C(C)(C)C)cc1NC(=O)Nc1cccc(Oc2ncnc3cc(OCCOC)c(OC)cc23)c1 [Ex 224, ethyl 2-[3-tert-butyl-5-(3-{3-[6-methoxy-7-(2-methoxyethoxy)quinazolin-4-yloxy]phenyl}ureido)-1H-pyrazol-1-yl]acetate hydrochloride]
- pIC50 [1]: < 6.00
- pEC50 [2]: < 6.00
- pKd [3]: < 6.00
- pKd [4]: < 6.00
- pKd [5]: < 6.00

Compound: COCCOc1cc2ncnc(Sc3cccc(NC(=O)Nc4cc(C(C)C)on4)c3)c2cc1OC [Ex 232, 1-(5-isopropylisoxazol-3-yl)-3-(3-(6-methoxy-7-(2-methoxyethoxy)quinazolin-4-ylthio)phenyl)urea]
- pIC50 [1]: 6.30 to 6.60
- pEC50 [2]: < 6.00
- pKd [3]: > 6.60
- pKd [4]: > 6.60
- pKd [5]: > 6.60

Compound: COCCOc1cc2ncnc(Sc3cccc(NC(=O)Nc4cc(C(C)(C)C)nn4-c4ccccc4)c3)c2cc1OC [Ex 236, 1-(3-tert-butyl-1-phenyl-1H-pyrazol-5-yl)-3-(3-(6-methoxy-7-(2-methoxyethoxy)quinazolin-4-ylthio)phenyl)urea]
- pIC50 [1]: > 6.60
- pKd [3]: < 6.00
- pKd [4]: < 6.00
- pKd [5]: < 6.00

Compound: COCCOc1cc2ncnc(Sc3cccc(NC(=O)Nc4cc(C(C)(CF)CF)nn4-c4ccccc4)c3)c2cc1OC [Ex 238, 1-[3-(1,3-difluoro-2-methylpropan-2-yl)-1-phenyl-1H-pyrazol-5-yl]-3-{3-[6-methoxy-7-(2-methoxyethoxy)quinazolin-4-ylthio]phenyl}urea]
- pIC50 [1]: > 6.60
- pEC50 [2]: < 6.00
- pKd [3]: < 6.00
- pKd [4]: < 6.00
- pKd [5]: < 6.00

Compound: COc1cc2ncnc(Sc3cccc(NC(=O)Nc4cc(C(C)(C)F)no4)c3)c2cc1OCCCN1CCS(=O)(=O)CC1 [Ex 245, 1-(3-(2-fluoropropan-2-yl)isoxazol-5-yl)-3-(3-(7-methoxy-6-(4,4-dioxo-3-thiomorpholinopropoxy)quinazolin-4-ylthio)phenyl)urea]
- pKd [7]: 6.30 to 6.60
- pIC50 [1]: > 6.60
- pEC50 [2]: < 6.00
- pKd [3]: > 6.60
- pKd [5]: > 6.60

Compound: COc1cc2c(Oc3cccc(NC(=O)Nc4cc(C(C)(C)F)no4)c3)ncnc2cc1OCCN1CCOCC1 [Ex 251, 1-(3-(2-fluoropropan-2-yl)isoxazol-5-yl)-3-(3-(6-methoxy-7-(2-morpholinoethoxy)quinazolin-4-yloxy)phenyl)urea]
- pKd [7]: 6.30 to 6.60
- pIC50 [1]: 6.30 to 6.60
- pEC50 [2]: < 6.00
- pKd [3]: > 6.60
- pKd [5]: > 6.60

Compound: COc1cc2ncnc(Oc3cc(NC(=O)Nc4cc(C(C)(C)C(F)(F)F)on4)ccc3F)c2cc1OC [Ex 266, 1-(3-(6,7-dimethoxyquinazolin-4-yloxy)-4-fluorophenyl)-3-(5-(1,1,1-trifluoro-2-methylpropan-2-yl)isoxazol-3-yl)urea]
- pIC50 [1]: > 6.60
- pKd [3]: > 6.60
- pKd [4]: > 6.60
- pKd [5]: > 6.60

Compound: COCCOc1cc2ncnc(Oc3cccc(NC(=O)Nc4cc(C(C)(C)C)nn4-c4ccc(C)cc4)c3)c2cc1OC [Ex 276, 1-(3-tert-butyl-1-p-tolyl-1H-pyrazol-5-yl)-3-(3-(6-methoxy-7-(2-methoxyethoxy)quinazolin-4-yloxy)phenyl)urea]
- pIC50 [1]: > 6.60
- pKd [3]: > 6.60
- pKd [4]: < 6.00
- pKd [5]: < 6.00

Compound: COc1cc2ncnc(Oc3cccc(NC(=O)Nc4cc(C(C)(C)C)nn4-c4ccccc4)c3C)c2cc1OC [Ex 289, 1-(3-tert-butyl-1-phenyl-1H-pyrazol-5-yl)-3-(3-(6,7-dimethoxyquinazolin-4-yloxy)-2-methylphenyl)urea]
- pKd [7]: 6.00 to 6.30
- pIC50 [1]: > 6.60
- pEC50 [2]: 6.00 to 6.30
- pKd [3]: > 6.60
- pKd [5]: < 6.00

Compound: COc1cc2ncnc(Oc3cc(NC(=O)Nc4cc(C(C)(CF)CF)on4)ccc3F)c2cc1OC [Ex 294, 1-(5-(1,3-difluoro-2-methylpropan-2-yl)isoxazol-3-yl)-3-(3-(6,7-dimethoxyquinazolin-4-yloxy)-4-fluorophenyl)urea]
- pIC50 [1]: > 6.60
- pKd [3]: > 6.60
- pKd [4]: > 6.60
- pKd [5]: > 6.60

Compound: COc1cc2ncnc(Oc3cccc(NC(=O)Nc4cc(C(C)(C)C)nn4-c4ccccc4)c3F)c2cc1OC [Ex 295, 1-(3-tert-butyl-1-phenyl-1H-pyrazol-5-yl)-3-(3-(6,7-dimethoxyquinazolin-4-yloxy)-2-fluorophenyl)urea]
- pKd [7]: 6.00 to 6.30
- pIC50 [1]: 6.00 to 6.30
- pEC50 [2]: < 6.00
- pKd [3]: > 6.60
- pKd [5]: < 6.00

Compound: COc1cc2ncnc(Sc3cccc(NC(=O)Nc4cc(C5CCC5)nn4-c4ccccc4)c3)c2cc1OC [Ex 356, 1-(3-cyclobutyl-1-phenyl-1H-pyrazol-5-yl)-3-(3-(6,7-dimethoxyquinazolin-4-ylthio)phenyl)urea]
- pKd [7]: 6.00 to 6.30
- pIC50 [1]: 6.30 to 6.60
- pEC50 [2]: > 6.60
- pKd [3]: > 6.60
- pKd [5]: < 6.00

Compound: COc1cc2ncnc(Sc3cccc(NC(=O)Nc4cc(C(C)(C)C)nn4Cc4ccccc4)c3)c2cc1OC [Ex 358, 1-(1-benzyl-3-tert-butyl-1H-pyrazol-5-yl)-3-(3-(6,7-dimethoxyquinazolin-4-ylthio)phenyl)urea]
- pIC50 [1]: 6.30 to 6.60
- pKd [3]: > 6.60
- pKd [4]: < 6.00
- pKd [5]: < 6.00

Compound: COc1cc2ncnc(Oc3cccc(NC(=O)Nc4cc(C(C)(C)C)nn4-c4cccc(F)c4)c3)c2cc1OC [Ex 359, 1-(3-tert-butyl-1-(3-fluorophenyl)-1H-pyrazol-5-yl)-3-(3-(6,7-dimethoxyquinazolin-4-yloxy)phenyl)urea]
- pIC50 [1]: > 6.60
- pKd [3]: > 6.60
- pKd [4]: < 6.00
- pKd [5]: < 6.00

Compound: COc1cc2ncnc(Sc3cccc(NC(=O)Nc4cc(C(C)(C)C)nn4-c4ccc(C(C)(C)C)cc4)c3)c2cc1OC [Ex 370, 1-(3-tert-butyl-1-(4-tert-butylphenyl)-1H-pyrazol-5-yl)-3-(3-(6,7-dimethoxyquinazolin-4-ylthio)phenyl)urea]
- pIC50 [1]: > 6.60
- pKd [3]: > 6.60
- pKd [4]: < 6.00
- pKd [5]: < 6.00

Compound: COc1cc2ncnc(Sc3cccc(NC(=O)Nc4cc(C(C)(C)C#N)no4)c3)c2cc1OC [Ex 381, 1-(3-(2-cyanopropan-2-yl)isoxazol-5-yl)-3-(3-(6,7-dimethoxyquinazolin-4-ylthio)phenyl)urea]
- pIC50 [1]: > 6.60
- pKd [3]: > 6.60
- pKd [4]: > 6.60
- pKd [5]: > 6.60

Compound: COc1cc2ncnc(Oc3cc(NC(=O)Nc4cc(C(F)(F)F)nn4-c4ccccc4)ccc3F)c2cc1OC [Ex 397, 1-(3-(6,7-Dimethoxyquinazolin-4-yloxy)-4-fluorophenyl)-3-(1-phenyl-3-(trifluoromethyl)-1H-pyrazol-5-yl)urea]
- pKd [7]: 6.00 to 6.30
- pIC50 [1]: > 6.60
- pEC50 [2]: 6.30 to 6.60
- pKd [3]: > 6.60
- pKd [5]: < 6.00
